Patent publication US10934302B1, “SHP2 phosphatase inhibitors and methods of use thereof” (Relay Therapeutics, Inc., priority 2018, dated 2021)
pIC50: −log10 of the molar value.

Target: SHP2 (Homo sapiens (Human), UniProt Q06124)
Assay: SHP2 allosteric inhibition assay (DiFMUP prompt fluorescence)
Format: biochemical
Details: 0.25 nM SHP2 activated with 0.5 μM peptide IRS1_pY1172(dPEG8)pY1222; substrate DiFMUP

Chain of SHP2 (Q06124 whole entry): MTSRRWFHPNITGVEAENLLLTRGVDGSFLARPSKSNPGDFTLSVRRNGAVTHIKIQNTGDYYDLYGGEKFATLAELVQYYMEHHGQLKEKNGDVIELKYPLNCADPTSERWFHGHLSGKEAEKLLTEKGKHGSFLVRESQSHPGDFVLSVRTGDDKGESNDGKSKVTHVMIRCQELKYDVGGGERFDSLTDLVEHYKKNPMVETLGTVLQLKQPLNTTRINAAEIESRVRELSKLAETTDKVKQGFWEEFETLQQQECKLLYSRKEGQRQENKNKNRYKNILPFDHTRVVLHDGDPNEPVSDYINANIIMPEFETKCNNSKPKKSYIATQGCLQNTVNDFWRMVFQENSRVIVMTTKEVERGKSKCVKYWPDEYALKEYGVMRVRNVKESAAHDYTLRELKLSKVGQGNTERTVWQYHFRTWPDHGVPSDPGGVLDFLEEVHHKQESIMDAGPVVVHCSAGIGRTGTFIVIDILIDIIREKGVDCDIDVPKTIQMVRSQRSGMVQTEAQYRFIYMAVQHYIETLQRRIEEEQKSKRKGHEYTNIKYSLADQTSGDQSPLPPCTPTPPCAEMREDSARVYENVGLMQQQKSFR

SMILES | pIC50
COc1ccc2c(n1)CC1(CCN(c3cnc4c(N5CCCc6ncccc65)n[nH]c4n3)CC1)[C@@H]2N [Example 108] | ≥ 7.30
Cn1ncc2c1CC1(CCN(c3cnc4c(N5CCCc6ncccc65)n[nH]c4n3)CC1)[C@@H]2N [Example 110] | ≥ 7.30
Cc1nc2c(N3CCCc4nc(-c5cnn(C)c5)ccc43)n[nH]c2nc1N1CCC2(CC1)Cc1ccccc1[C@H]2N [Example 149, (3S)-1′-{5-methyl-3-[6-(1-methyl-1H-pyrazol-4-yl)-1,2,3,4-tetrahydro-1,5-naphthyridin-1-yl]-1H-pyrazolo[3,4-b]pyrazin-6-yl}-1,3-dihydrospiro[indene-2,4′-piperidin]-3-amine] | ≥ 7.30
N[C@@H]1c2ccccc2CC12CCN(c1cnc(N3CCCC3c3ccccc3)cn1)CC2 (stereo in doubt) [Example 164, (3S)-1′-{5-[(2S)-2-phenylpyrrolidin-1-yl]pyrazin-2-yl}-1,3-dihydrospiro[indene-2,4′-piperidin]-3-amine] | ≥ 7.30
Nc1nccc(-c2n[nH]c3nc(N4CCC5(CC4)Cc4ccccc4[C@H]5N)cnc23)c1Cl [Example 79, (3S)-1′-[3-(2-amino-3-chloropyridin-4-yl)-1H-pyrazolo[3,4-b]pyrazin-6-yl]-1,3-dihydrospiro[indene-2,4′-piperidin]-3-amine] | ≥ 7.30
Cc1nccc(Sc2n[nH]c3nc(N4CCC5(CC4)Cc4ccccc4[C@H]5N)cnc23)c1Cl [Example 90] | 6.00 to 7.30
N#Cc1nc(Sc2ccnc(Cl)c2Cl)cnc1N1CCC2(CC1)Cc1ccccc1[C@H]2N [Example 220] | ≥ 7.30
N[C@@H]1c2ccccc2CC12CCN(c1cnc3c(-c4cc5cc[nH]c5cc4F)n[nH]c3n1)CC2 [Example 72] | ≥ 7.30
Cc1nc2c(cnn2-c2cccc3c(=O)n(C)ccc23)nc1N1CCC2(CC1)Oc1ccccc1[C@H]2N [Example 203] | ≥ 7.30
Nc1nccc(Sc2cnc(N3CCC4(CC3)Cc3ccccc3[C@H]4N)nc2)c1Cl [Example 93] | ≥ 7.30
C[C@@H](O)c1nc2c(N3CCCc4ncccc43)n[nH]c2nc1N1CCC2(CC1)Cc1ccccc1[C@H]2N (single isomer, unassigned) [Example 141] | ≥ 7.30
Nc1nccc(Sc2ccc(N3CCC4(CC3)Oc3ccccc3[C@H]4N)cn2)c1Cl [Example 216] | 6.00 to 7.30
N[C@@H]1c2ccccc2CC12CCN(c1cnc(SC3CCCCC3)cn1)CC2 [Example 233, (3S)-1′-[5-(cyclohexylsulfanyl)pyrazin-2-yl]-1,3-dihydrospiro[indene-2,4′-piperidin]-3-amine] | ≥ 7.30
N#Cc1cccc2c1CC1(CCN(c3cnc4c(N5CCCc6ncccc65)n[nH]c4n3)CC1)[C@@H]2N [Example 117, (S)-1-amino-1′-(3-(3,4-dihydro-1,5-naphthyridin-1(2H)-yl)-1H-pyrazolo[3,4-b]pyrazin-6-yl)-1,3-dihydrospiro[indene-2,4′-piperidine]-4-carbonitrile] | ≥ 7.30
C[C@@H](C#N)N(C)c1n[nH]c2nc(N3CCC4(CC3)Cc3ccccc3[C@H]4N)cnc12 (racemic) [Example 150, (S)-2-((6-((S)-1-amino-1,3-dihydrospiro[indene-2,4′-piperidin]-1′-yl)-1H-pyrazolo[3,4-b]pyrazin-3-yl)(methyl)amino)propanenitrile] | 6.00 to 7.30
Nc1nccc(Nc2n[nH]c3nc(N4CCC5(CC4)Cc4ccccc4[C@H]5N)cnc23)c1Cl [Example 138, (S)—N4-(6-(1-amino-1,3-dihydrospiro[indene-2,4′-piperidin]-1′-yl)-1H-pyrazolo[3,4-b]pyrazin-3-yl)-3-chloropyridine-2,4-diamine] | ≥ 7.30
Cc1c(-c2ccccc2Cl)nc2sc(N3CCC4(CC3)Cc3ccccc3[C@H]4N)nn12 [Example 144, (S)-1′-(6-(2-chlorophenyl)-5-methylimidazo[2,1-b][1,3,4]thiadiazol-2-yl)-1,3-dihydrospiro[indene-2,4′-piperidin]-1-amine] | ≥ 7.30
Cc1nc2c(ccn2C2=CCOCC2)nc1N1CCC2(CC1)Cc1ccccc1[C@H]2N [Example 193, (3S)-1′-[5-(3,6-dihydro-2H-pyran-4-yl)-3-methyl-5H-pyrrolo[2,3-b]pyrazin-2-yl]-1,3-dihydrospiro[indene-2,4′-piperidin]-3-amine] | ≥ 7.30
Cc1nc(N2CCC3(CC2)Cc2ccccc2[C@H]3N)cnc1SC1CCCC1 [Example 250, (3S)-1′-[5-(cyclopentylsulfanyl)-6-methylpyrazin-2-yl]-1,3-dihydrospiro[indene-2,4′-piperidin]-3-amine] | ≥ 7.30
N[C@@H]1c2ccccc2CC12CCN(C(=O)c1ccccc1Oc1ccccc1)CC2 [Example 292, (3S)-1′-(2-phenoxybenzoyl)-1,3-dihydrospiro[indene-2,4′-piperidin]-3-amine] | < 5.00
CNC(=O)c1cc(C)nc(N2CCC3(CC2)Cc2ccccc2[C@H]3N)c1 [Example 228] | < 5.00
Nc1nccc(Sc2ccc(N3CCC4(CC3)Cc3ccccc3[C@H]4N)cn2)c1Cl [Example 97] | 6.00 to 7.30

SMILES | pIC50
N[C@@H]1c2ccccc2CC12CCN(c1cnc3c(Sc4ccnc(Cl)c4Cl)n[nH]c3n1)CC2 [Example 91] | 5.00 to 6.00
N[C@@H]1c2ccccc2CC12CCN(C(=O)c1csc(N3CCCCC3)n1)CC2 [Example 204] | ≥ 7.30
Cc1nc2c(C#N)n[nH]c2nc1N1CCC2(CC1)Cc1ccccc1[C@H]2N [Example 163, 6-[(3S)-3-amino-1,3-dihydrospiro[indene-2,4′-piperidin]-1′-yl]-5-methyl-1H-pyrazolo[3,4-b]pyrazine-3-carbonitrile] | 5.00 to 6.00
N[C@H]1c2cccc(F)c2CC12CCN(c1cnc3cn[nH]c3n1)CC2 [Example 24] | ≥ 7.30
Cc1nc(Sc2ccnc(N)c2Cl)cnc1N1CCC2(CC1)Cc1ccccc1[C@H]2N [Example 84, (S)-1′-(5-((2-amino-3-chloropyridin-4-yl)thio)-3-methylpyrazin-2-yl)-1,3-dihydrospiro[indene-2,4′-piperidin]-1-amine] | ≥ 7.30
N[C@H]1c2ccccc2CC12CCN(c1cnc3c(Sc4ccnc(Cl)c4Cl)n[nH]c3n1)CC2 [Example 92] | ≥ 7.30
Cc1cnc(CO)c(N2CCC3(CC2)Cc2ccccc2[C@H]3N)n1 (single isomer, unassigned) [Example 122] | ≥ 7.30
Cc1nc2c(N3CCCc4ncccc43)n[nH]c2nc1N1CCC2(CC1)Cc1ccccc1[C@H]2N [Example 124, (S)-1′-(3-(3,4-dihydro-1,5-naphthyridin-1(2H)-yl)-5-methyl-1H-pyrazolo[3,4-b]pyrazin-6-yl)-1,3-dihydrospiro[indene-2,4′-piperidin]-1-amine] | ≥ 7.30
Cn1cc(-c2ccc3c(n2)CCCN3c2n[nH]c3nc(N4CCC5(CC4)Cc4c(F)cccc4[C@H]5N)cnc23)cn1 [Example 42] | ≥ 7.30
Nc1cc(Sc2cnc(N3CCC4(CC3)Cc3ccccc3[C@H]4N)cn2)c(Cl)c(Cl)n1 [Example 129, (S)-1′-(5-((6-amino-2,3-dichloropyridin-4-yl)thio)pyrazin-2-yl)-1,3-dihydrospiro[indene-2,4′-piperidin]-1-amine] | ≥ 7.30
Nc1nccc(-c2n[nH]c3nc(N4CCC5(CC4)Cc4ccccc4[C@@H]5N)cnc23)c1F [Example 77, (R)-1′-(3-(2-amino-3-fluoropyridin-4-yl)-1H-pyrazolo[3,4-b]pyrazin-6-yl)-1,3-dihydrospiro[indene-2,4′-piperidin]-1-amine] | ≥ 7.30
C[C@@H](C(N)=O)N(C)c1n[nH]c2nc(N3CCC4(CC3)Cc3ccccc3[C@H]4N)cnc12 (racemic) [Example 151, (2S)-2-({6-[(3S)-3-amino-1,3-dihydrospiro[indene-2,4′-piperidin]-1′-yl]-1H-pyrazolo[3,4-b]pyrazin-3-yl}(methyl)amino)propanamide] | ≥ 7.30
N[C@@H]1c2ccccc2CC12CCN(c1nn3cc(C4CCCC4)nc3s1)CC2 [Example 252, (1S)-1′-{6-cyclopentylimidazo[2,1-b][1,3,4]thiadiazol-2-yl}-1,3-dihydrospiro[indene-2,4′-piperidin]-1-amine] | ≥ 7.30
COc1nc(N2CCC3(CC2)Cc2ccccc2[C@H]3N)ncc1Sc1cccc(Cl)c1Cl [Example 262, (S)-1′-(5-((2,3-dichlorophenyl)thio)-4-methoxypyrimidin-2-yl)-1,3-dihydrospiro[indene-2,4′-piperidin]-1-amine] | 6.00 to 7.30
Cc1cc(-c2cccnc2)c(C)c(N2CCC3(CC2)Cc2ccccc2[C@H]3N)n1 [Example 294, (3S)-1′-{3′,6′-dimethyl-[3,4′-bipyridin]-2′-yl}-1,3-dihydrospiro[indene-2,4′-piperidin]-3-amine] | ≥ 7.30
N[C@@H]1c2ccccc2OC12CCN(c1cnc(Oc3ccnc(Cl)c3Cl)cn1)CC2 [Example 64] | ≥ 7.30
N[C@@H]1c2ccccc2CC12CCN(c1cnc3c(-c4ccncc4F)n[nH]c3n1)CC2 [Example 74] | ≥ 7.30
Cc1nc2c(N3CCCCC3)n[nH]c2nc1N1CCC2(CC1)Cc1ccccc1[C@H]2N [Example 152, (3S)-1′-[5-methyl-3-(piperidin-1-yl)-1H-pyrazolo[3,4-b]pyrazin-6-yl]-1,3-dihydrospiro[indene-2,4′-piperidin]-3-amine] | ≥ 7.30
Cn1ccc2c(c1=O)CCCN2c1n[nH]c2nc(N3CCC4(CC3)Oc3c(F)cccc3[C@H]4N)cnc12 [Example 55] | ≥ 7.30
NC1C2CC2CC12CCN(c1cnc3c(N4CCCc5ncccc54)n[nH]c3n1)CC2 (centres unmarked) [Example 7, 1′-(3-(3,4-dihydro-1,5-naphthyridin-1(2H)-yl)-1H-pyrazolo[3,4-b]pyrazin-6-yl)spiro[bicyclo[3.1.0]hexane-3,4′-piperidin]-2-amine] | ≥ 7.30
Cn1ccc(Sc2cnc(N3CCC4(CC3)Cc3ccccc3[C@H]4N)cn2)c(Cl)c1=O [Example 132, 4-({5-[(3S)-3-amino-1,3-dihydrospiro[indene-2,4′-piperidin]-1′-yl]pyrazin-2-yl}sulfanyl)-3-chloro-1-methyl-1,2-dihydropyridin-2-one] | ≥ 7.30
NC1c2ccccc2C[C@]12CC[C@H](c1ccc(SCC3CC3)nc1)CC2 (single isomer, unassigned) [Example 282, (1s, 3′R, 4S)-4-{6-[(cyclopropylmethyl)sulfanyl]pyridin-3-yl}-1′,3′-dihydrospiro[cyclohexane-1,2′-inden]-3′-amine] | ≥ 7.30
